Test results reported in patent US9540343B2 (Gilead Sciences, Inc., priority 2011, dated 2017).

Columns and labels:
in vitro = test: in vitro
Method in brief: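 Cytoprotection read-out: CellTiter-Glo chemiluminescence after 5 days at 37 °C of HIV-IIIb-infected MT-4 cells (m.o.i. 0.003) with compound in 10-point 3-fold dilutions, quadruplicate, 10% FBS. Cytotoxicity (CC50) measured identically without virus.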

HIV-IIIb = test: Test A: Antiviral assay in MT4 cells; format: cell-based, HIV-1; conditions: Human immunodeficiency virus 1, IIIB, MT4, 120 h, read-out: % inhibition at 2 μM, percent inhibition of virus-induced cell killing, from dose response curve at 2 uM drug; MT-4 cells infected with HIV-IIIb, 5 days, CellTiter-Glo
[1] = human, uninfected MT-4 cells, CC50 (nM), same protocol as Test A, CellTiter-Glo

Structure (SMILES) | CC50 at 5 days (in vitro; [1]) [nM] | inhibition at 2 µM (HIV-IIIb) [%] | CC50 at 5 days (in vitro; human, CC50 (nM), uninfected MT-4 cells, same protocol as Test A, CellTiter-Glo) [nM]
NC(=O)c1cc(-c2ccc[n+]([O-])c2[C@H](Cc2cc(F)cc(F)c2)NC(=O)Cn2nc(C(F)(F)F)c3c2CCS(=O)(=O)C3)ccc1F [Example 197, (S)-3-(3-carbamoyl-4-fluorophenyl)-2-(2-(3,5-difluorophenyl)-1-(2-(5,5-dioxido-3-(trifluoromethyl)-6,7-dihydrothiopyrano[4,3-c]pyrazol-1(4H)-yl)acetamido)ethyl)pyridine-1-oxide] | > 53200 | 0 | –
NC(=O)c1cc(-c2cccnc2[C@H](Cc2cc(F)cc(F)c2)NC(=O)Cn2nc(C(F)F)c3c2CC2CC32)ccc1F (stereo partly drawn) [Example 198, 5-(2-((1S)-1-(2-(3-(difluoromethyl)-3b,4,4a,5-tetrahydro-1H-cyclopropa[3,4]cyclopenta[1,2-c]pyrazol-1-yl)acetamido)-2-(3,5-difluorophenyl)ethyl)pyridin-3-yl)-2-fluorobenzamide] | 45900 | 112 | –
NC(=O)c1cc(-c2cccnc2[C@H](Cc2cc(F)cc(F)c2)NC(=O)Cn2nc(C(F)(F)F)c3c2CC2C3C2(F)F)ccc1F (stereo partly drawn) [Example 199E, 5-(2-((1S)-1-(2-(4,4-difluoro-3-(trifluoromethyl)-3b,4,4a,5-tetrahydro-1H-cyclopropa[3,4]cyclopenta[1,2-c]pyrazol-1-yl)acetamido)-2-(3,5-difluorophenyl)ethyl)pyridin-3-yl)-2-fluorobenzamide] | 9520 | 18 | –
NC(=O)c1cc(-c2cccnc2[C@H](Cc2cc(F)cc(F)c2)NC(=O)Cn2nc3c(c2C(F)(F)F)CNC3)ccc1F [Example 200B, (S)-5-(2-(2-(3,5-difluorophenyl)-1-(2-(3-(trifluoromethyl)-5,6-dihydropyrrolo[3,4-c]pyrazol-2(4H)-yl)acetamido)ethyl)pyridin-3-yl)-2-fluorobenzamide] | > 53200 | 0 | –
NC(=O)c1cc(-c2cccnc2[C@H](Cc2cc(F)cc(F)c2)NC(=O)Cc2cc(=O)[nH]c3ccccc23)ccc1F [Example 201, (S)-5-(2-(2-(3,5-difluorophenyl)-1-(2-(2-oxo-1,2-dihydroquinolin-4-yl)acetamido)ethyl)pyridin-3-yl)-2-fluorobenzamide] | > 53200 | 8 | –
COc1ccc2c(c1)C(CC(=O)N[C@@H](Cc1cc(F)cc(F)c1)c1ncccc1-c1ccc(F)c(C(N)=O)c1)C(=O)N2 (stereo partly drawn) [Example 202, 5-(2-((1S)-2-(3,5-difluorophenyl)-1-(2-(5-methoxy-2-oxoindolin-3-yl)acetamido)ethyl)pyridin-3-yl)-2-fluorobenzamide] | > 53200 | 1 | –
NC(=O)c1cc(-c2cccnc2[C@H](Cc2cc(F)cc(F)c2)NC(=O)Cn2nc3c(c2C(F)(F)F)COC3)ccc1F [Example 203D, (S)-5-(2-(2-(3,5-difluorophenyl)-1-(2-(3-(trifluoromethyl)-4,6-dihydro-2H-furo[3,4-c]pyrazol-2-yl)acetamido)ethyl)pyridin-3-yl)-2-fluorobenzamide] | > 53200 | 0 | –
NC(=O)c1cc(-c2cccnc2[C@H](Cc2cccc(F)c2)NC(=O)Cn2nc(C(F)(F)F)c3c2CCS(=O)(=O)C3)ccc1F [Example 204, (S)-5-(2-(1-(2-(5,5-dioxido-3-(trifluoromethyl)-6,7-dihydrothiopyrano[4,3-c]pyrazol-1(4H)-yl)acetamido)-2-(3-fluorophenyl)ethyl)pyridin-3-yl)-2-fluorobenzamide] | > 53200 | 1 | –
Cc1cc(C)c2c(c1)C(CC(=O)N[C@@H](Cc1cc(F)cc(F)c1)c1ncccc1-c1ccc(F)c(C(N)=O)c1)C(=O)N2 (stereo partly drawn) [Example 205, 5-(2-((1S)-2-(3,5-difluorophenyl)-1-(2-(5,7-dimethyl-2-oxoindolin-3-yl)acetamido)ethyl)pyridin-3-yl)-2-fluorobenzamide] | 13100 | 12 | –
O=C(Cn1nc(C(F)F)c2c1C(F)(F)C1CC21)N[C@@H](Cc1cc(F)cc(F)c1)c1ncccc1-c1ccc(OCC2CC2)cc1 (stereo partly drawn) [Example 206, N—((S)-1-(3-(4-(cyclopropylmethoxy)phenyl)pyridin-2-yl)-2-(3,5-difluorophenyl)ethyl)-2-(3-(difluoromethyl)-5,5-difluoro-3b,4,4a,5-tetrahydro-1H-cyclopropa[3,4]cyclopenta[1,2-c]pyrazol-1-yl)acetamide] | 20000 | 54 | –
CC(C)Cc1cc(C(F)(F)F)nn1CC(=O)N[C@@H](Cc1cc(F)cc(F)c1)c1ncccc1-c1ccc(F)c(C(N)=O)c1 [Example 207C, (S)-5-(2-(2-(3,5-difluorophenyl)-1-(2-(5-isobutyl-3-(trifluoromethyl)-1H-pyrazol-1-yl)acetamido)ethyl)pyridin-3-yl)-2-fluorobenzamide] | 13200 | 16 | –
COCc1cc(C(F)(F)F)nn1CC(=O)N[C@@H](Cc1cc(F)cc(F)c1)c1ncccc1-c1ccc(F)c(C(N)=O)c1 [Example 208D] | – | 2 | > 53200
NC(=O)c1cc(-c2cccnc2[C@H](Cc2cc(F)cc(F)c2)NC(=O)Cn2nc(C(N)=O)c3c2CC2CC32)ccc1F (stereo partly drawn) [Example 209, 1-(2-(((S)-1-(3-(3-carbamoyl-4-fluorophenyl)pyridin-2-yl)-2-(3,5-difluorophenyl)ethyl)amino)-2-oxoethyl)-3b,4,4a,5-tetrahydro-1H-cyclopropa[3,4]cyclopenta[1,2-c]pyrazole-3-carboxamide] | > 53200 | 51 | –
CN1Cc2nn(CC(=O)N[C@@H](Cc3cc(F)cc(F)c3)c3ncccc3-c3ccc(F)c(C(N)=O)c3)c(C(F)(F)F)c2C1 [Example 210, (S)-5-(2-(2-(3,5-difluorophenyl)-1-(2-(5-methyl-3-(trifluoromethyl)-5,6-dihydropyrrolo[3,4-c]pyrazol-2(4H)-yl)acetamido)ethyl)pyridin-3-yl)-2-fluorobenzamide] | > 53200 | 0 | –
N#Cc1nn(CC(=O)N[C@@H](Cc2cc(F)cc(F)c2)c2ncccc2-c2ccc(F)c(C(N)=O)c2)c2c1CCC2 [Example 211C, (S)-5-(2-(1-(2-(3-cyano-5,6-dihydrocyclopenta[c]pyrazol-1(4H)-yl)acetamido)-2-(3,5-difluorophenyl)ethyl)pyridin-3-yl)-2-fluorobenzamide] | 36100 | 83 | –
NC(=O)c1cc(-c2cccnc2[C@H](Cc2cc(F)cc(F)c2)NC(=O)Cn2nc(C(F)F)c3c2C(O)C2CC32)ccc1F (stereo partly drawn) [Example 212, 5-(2-((1S)-1-(2-(3-(difluoromethyl)-5-hydroxy-3b,4,4a,5-tetrahydro-1H-cyclopropa[3,4]cyclopenta[1,2-c]pyrazol-1-yl)acetamido)-2-(3,5-difluorophenyl)ethyl)pyridin-3-yl)-2-fluorobenzamide] | > 53200 | 69 | –
NC(=O)c1cc(-c2cccnc2[C@H](Cc2cccc(F)c2)NC(=O)Cn2nc(C(F)(F)F)c3ccccc32)ccc1F [Example 213C, (S)-2-fluoro-5-(2-(2-(3-fluorophenyl)-1-(2-(3-(trifluoromethyl)-1H-indazol-1-yl)acetamido)ethyl)pyridin-3-yl)benzamide] | 15900 | 14 | –
NC(=O)c1cc(-c2cccnc2[C@H](Cc2cc(F)cc(F)c2)NC(=O)Cc2cccc3ccccc23)ccc1F [Example 214, (S)-5-(2-(2-(3,5-difluorophenyl)-1-(2-(naphthalen-1-yl)acetamido)ethyl)pyridin-3-yl)-2-fluorobenzamide] | 22200 | 8 | –
COCCOc1ccc(-c2cccnc2[C@H](Cc2cc(F)cc(F)c2)NC(=O)Cn2nc(C(F)F)c3c2C(F)(F)C2CC32)cc1 (stereo partly drawn) [Example 217, 2-(3-(difluoromethyl)-5,5-difluoro-3b,4,4a,5-tetrahydro-1H-cyclopropa[3,4]cyclopenta[1,2-c]pyrazol-1-yl)-N—((S)-2-(3,5-difluorophenyl)-1-(3-(4-(2-methoxyethoxy)phenyl)pyridin-2-yl)ethyl)acetamide] | 29600 | 92 | –
NC(=O)c1cc(-c2ccc[n+]([O-])c2[C@H](Cc2cc(F)cc(F)c2)NC(=O)Cn2nc(C(F)(F)F)c3c2CS(=O)(=O)C3)ccc1F [Example 218, (S)-3-(3-carbamoyl-4-fluorophenyl)-2-(2-(3,5-difluorophenyl)-1-(2-(5,5-dioxido-3-(trifluoromethyl)-4,6-dihydro-1H-thieno[3,4-c]pyrazol-1-yl)acetamido)ethyl)pyridine 1-oxide] | > 53200 | 0 | –
CC(=O)N1Cc2c(C(F)(F)F)nn(CC(=O)N[C@@H](Cc3cc(F)cc(F)c3)c3ncccc3-c3ccc(F)c(C(N)=O)c3)c2C1 [Example 219, (S)-5-(2-(1-(2-(5-acetyl-3-(trifluoromethyl)-5,6-dihydropyrrolo[3,4-c]pyrazol-1(4H)-yl)acetamido)-2-(3,5-difluorophenyl)ethyl)pyridin-3-yl)-2-fluorobenzamide] | > 53200 | 1 | –
NC(=O)c1cc(-c2cccnc2[C@H](Cc2cc(F)cc(F)c2)NC(=O)Cn2nc3c(c2C(F)F)C2CC2C3=O)ccc1F (stereo partly drawn) [Example 220B, 5-(2-((1S)-1-(2-(3-(difluoromethyl)-5-oxo-3b,4,4a,5-tetrahydro-2H-cyclopropa[3,4]cyclopenta[1,2-c]pyrazol-2-yl)acetamido)-2-(3,5-difluorophenyl)ethyl)pyridin-3-yl)-2-fluorobenzamide] | 39200 | 70 | –
Cc1ccc2c(c1C)NC(=O)C2CC(=O)N[C@@H](Cc1cc(F)cc(F)c1)c1ncccc1-c1ccc(F)c(C(N)=O)c1 (stereo partly drawn) [Example 221, 5-(2-((1S)-2-(3,5-difluorophenyl)-1-(2-(6,7-dimethyl-2-oxoindolin-3-yl)acetamido)ethyl)pyridin-3-yl)-2-fluorobenzamide] | 40500 | 1 | –
